IC50 data for 14 compounds are collected here from PubChem BioAssay AID651581 (Sanford-Burnham Center for Chemical Genomics, 2012).

Assay [1] addresses Endothelial PAS domain-containing protein 1 (Homo sapiens) (UniProt Q99814). In words: HIF-2a and HIF-1a reporter inhibition panel, dose response, selectivity assay for HIF-2a inhibitor project, cell-based, luminescence (AID 651581).
Assay [2] deals with Hypoxia-inducible factor 1-alpha (Homo sapiens) (UniProt Q16665). The description is as above. Particulars: HIF-1a.

The source made the active and inactive calls. No rule for the calls is given here.

Chain of Hypoxia-inducible factor 1-alpha (Homo sapiens) (Q16665 whole entry, looked up): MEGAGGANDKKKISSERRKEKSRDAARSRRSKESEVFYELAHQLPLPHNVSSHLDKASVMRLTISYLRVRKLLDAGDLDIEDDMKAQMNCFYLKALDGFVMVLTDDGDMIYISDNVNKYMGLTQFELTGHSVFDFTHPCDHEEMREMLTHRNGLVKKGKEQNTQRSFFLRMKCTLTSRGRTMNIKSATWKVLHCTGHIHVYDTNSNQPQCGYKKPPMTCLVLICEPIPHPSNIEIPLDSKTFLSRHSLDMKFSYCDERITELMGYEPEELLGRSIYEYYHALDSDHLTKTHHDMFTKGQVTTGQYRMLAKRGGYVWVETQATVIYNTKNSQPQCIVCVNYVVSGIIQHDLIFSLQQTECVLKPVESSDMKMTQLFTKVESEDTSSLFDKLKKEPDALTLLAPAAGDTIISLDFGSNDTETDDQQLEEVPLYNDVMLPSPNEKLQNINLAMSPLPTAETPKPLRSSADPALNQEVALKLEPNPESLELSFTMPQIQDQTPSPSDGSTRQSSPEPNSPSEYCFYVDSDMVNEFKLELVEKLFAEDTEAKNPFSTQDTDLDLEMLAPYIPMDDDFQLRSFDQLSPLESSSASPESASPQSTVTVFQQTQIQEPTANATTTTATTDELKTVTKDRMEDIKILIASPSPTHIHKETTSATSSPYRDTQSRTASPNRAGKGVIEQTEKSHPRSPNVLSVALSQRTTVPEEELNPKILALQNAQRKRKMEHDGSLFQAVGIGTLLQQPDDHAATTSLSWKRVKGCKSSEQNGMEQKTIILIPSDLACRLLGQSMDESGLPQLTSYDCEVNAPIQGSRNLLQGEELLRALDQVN

As for `C/C(=N/NC(=O)c1cc(C2CC2)[nH]n1)c1cccs1`, the IC50 (as a rule, the concentration needed to halve the response being measured) is > 99 µM in assay [1] (HIF-2a PANC, run 1); < 30 µM in assay [1] (HIF-2a PANC, run 2); < 30 µM (inactive) in assay [1] (HIF-2a, mean of runs); < 30 µM in assay [1] (HIF-2a, run 1); < 30 µM in assay [1] (HIF-2a, run 2); 24.8 µM in assay [2] (run 1). The IC50 in assay [2] (run 2) was 21.7 µM. Moreover, the IC50 result in assay [2] (mean of runs) was “inactive”.

Turning to `Cc1nc(SCc2cccc(C(=O)O)c2)nc2c1CCCC2`, the IC50 result in assay [1] (HIF-2a PANC, mean of runs) was “inactive”. Moreover, the IC50 in assay [1] (HIF-2a PANC, run 1) was 7.09 µM; in assay [1] (HIF-2a PANC, run 2) it was 65.6 µM; in assay [1] (HIF-2a, mean of runs) it was 1.05 µM; in assay [1] (HIF-2a, run 1), 1.28 µM; in assay [1] (HIF-2a, run 2) it was 0.826 µM; in assay [2] (mean of runs), 10.5 µM. In addition, the IC50 worked out at 3.9 µM in assay [2] (run 1) and 17 µM in assay [2] (run 2).

`O=C1C=C(c2ccccc2)C(=O)N1Nc1ccccc1`: the IC50 in assay [1] (HIF-2a PANC, mean of runs) was > 99 µM (inactive); in assay [1] (HIF-2a PANC, run 1), > 99 µM; in assay [1] (HIF-2a PANC, run 2), > 99 µM; in assay [1] (HIF-2a, run 1), 11.2 µM; in assay [1] (HIF-2a, run 2) it was 10.6 µM; in assay [2] (mean of runs) it was 82.8 µM. Also, the IC50 was determined as 76 µM in assay [2] (run 1) and 89.5 µM in assay [2] (run 2). Besides, the IC50 result in assay [1] (HIF-2a, mean of runs) is “inactive”.

`CC(C)(C)c1ccc(-c2noc(CCC(=O)Nc3cccnc3)n2)cc1`: the IC50 in assay [1] (HIF-2a PANC, mean of runs) was < 0.3 µM; in assay [1] (HIF-2a PANC, run 1) it was < 1 µM; in assay [1] (HIF-2a PANC, run 2) it was < 0.3 µM; in assay [1] (HIF-2a, mean of runs) it was < 1 µM; in assay [1] (HIF-2a, run 1), < 1 µM; in assay [1] (HIF-2a, run 2) it was < 1 µM. Besides, the results for the 50% inhibitory concentration (IC50) in assay [2] (mean of runs), in assay [2] (run 1) and in assay [2] (run 2) were 64.2 µM, 78.9 µM and 49.5 µM, respectively.

Turning to `COc1ccc(OC)c(S(=O)(=O)ON2C(=O)c3ccccc3C2=O)c1`, the IC50 was > 99 µM (inactive) in assay [1] (HIF-2a PANC, mean of runs); > 99 µM in assay [1] (HIF-2a PANC, run 1); > 99 µM in assay [1] (HIF-2a PANC, run 2); 8.27 µM in assay [1] (HIF-2a, mean of runs); 9.25 µM in assay [1] (HIF-2a, run 1); 7.3 µM in assay [1] (HIF-2a, run 2). Moreover, the IC50 in assay [2] (run 1) and in assay [2] (run 2) was > 99 µM in each case.

With `O=C(OCC(F)(F)F)c1cccc(COc2ccc3ccccc3c2)c1`, the IC50 is > 99 µM in assay [1] (HIF-2a PANC, run 1); < 30 µM in assay [1] (HIF-2a PANC, run 2); 2.86 µM in assay [1] (HIF-2a, mean of runs); 2.92 µM in assay [1] (HIF-2a, run 1); 2.79 µM in assay [1] (HIF-2a, run 2); > 99 µM in assay [2] (run 1). The 50% inhibitory concentration (IC50) in assay [2] (run 2) is > 99 µM.

Consider `C=CS(=O)(=O)c1sc(Cl)c(N2CCOCC2)c1[N+](=O)[O-]`, for which the IC50 was > 99 µM in assay [1] (HIF-2a PANC, run 1); 15.5 µM in assay [1] (HIF-2a PANC, run 2); 8.96 µM in assay [1] (HIF-2a, mean of runs); 9.47 µM in assay [1] (HIF-2a, run 1); 8.45 µM in assay [1] (HIF-2a, run 2); 47.5 µM in assay [2] (run 1). The IC50 in assay [2] (run 2) is > 99 µM.

Turning to `Cc1nn(-c2ccccc2Cl)c(Cl)c1/C=N/Nc1cccc(C(=O)O)c1`, the IC50 in assay [1] (HIF-2a PANC, mean of runs) is > 99 µM (inactive); in assay [1] (HIF-2a PANC, run 1), > 99 µM; in assay [1] (HIF-2a PANC, run 2), > 99 µM; in assay [1] (HIF-2a, run 1), 23.5 µM; in assay [1] (HIF-2a, run 2) it was 24.2 µM; in assay [2] (run 1), > 99 µM. Besides, the IC50 in assay [2] (run 2) is > 99 µM. In addition, the IC50 result in assay [1] (HIF-2a, mean of runs) is “inactive”.

Turning to `c1c2c(cc3sc(N4CCOCC4)nc13)OCCO2`, the IC50 in assay [1] (HIF-2a PANC, mean of runs) is 17.2 µM; in assay [1] (HIF-2a PANC, run 1), 20 µM; in assay [1] (HIF-2a PANC, run 2), 14.4 µM; in assay [1] (HIF-2a, mean of runs) it was < 30 µM (inactive); in assay [1] (HIF-2a, run 1) it was < 30 µM; in assay [1] (HIF-2a, run 2), < 30 µM. Moreover, the figures for the IC50 in assay [2] (run 1) and in assay [2] (run 2) were 11.3 µM and 18 µM, respectively. Moreover, in assay [2] (mean of runs), the IC50 result is “inactive”.

Turning to `COC(=O)c1cccc(NC(=O)NC(=O)c2ccccc2Cl)c1`, the IC50 in assay [1] (HIF-2a PANC, run 1) is 17.6 µM; in assay [1] (HIF-2a PANC, run 2) it was > 99 µM; in assay [1] (HIF-2a, mean of runs), 7.56 µM; in assay [1] (HIF-2a, run 1) it was 7.45 µM; in assay [1] (HIF-2a, run 2), 7.66 µM; in assay [2] (run 1) it was > 99 µM. In assay [2] (run 2), the concentration for half-maximal inhibition (IC50) was > 99 µM.

Regarding `O=C(Nc1ccc(NC(=O)c2ccco2)cc1)c1ccc2c(c1)OCCO2`, the IC50 in assay [1] (HIF-2a PANC, mean of runs) is 11.2 µM; in assay [1] (HIF-2a PANC, run 1) it was 10.1 µM; in assay [1] (HIF-2a PANC, run 2), 12.4 µM; in assay [1] (HIF-2a, mean of runs), 7.76 µM; in assay [1] (HIF-2a, run 1), 8.03 µM; in assay [1] (HIF-2a, run 2), 7.48 µM. The concentration for half-maximal inhibition (IC50) was > 99 µM in assay [2] (run 1) and 86 µM in assay [2] (run 2).

For `Cc1cc(C)cc(C(=O)NC(=S)Nc2ccc(-c3cc4ccccc4oc3=O)cc2)c1`, the IC50 in assay [1] (HIF-2a PANC, run 1) is > 99 µM; in assay [1] (HIF-2a PANC, run 2) it was > 99 µM; in assay [1] (HIF-2a, mean of runs), > 99 µM (inactive); in assay [1] (HIF-2a, run 1) it was > 99 µM; in assay [1] (HIF-2a, run 2), > 99 µM; in assay [2] (mean of runs) it was > 99 µM (inactive). The IC50 in assay [2] (run 1) and in assay [2] (run 2) was > 99 µM throughout.

For `CCOC(=O)Cc1csc(N/N=C/c2ccc(C(F)(F)F)cc2)n1`, the IC50 in assay [1] (HIF-2a PANC, mean of runs) is 0.711 µM; in assay [1] (HIF-2a PANC, run 1) it was 0.556 µM; in assay [1] (HIF-2a PANC, run 2) it was 0.866 µM; in assay [1] (HIF-2a, run 1), > 99 µM; in assay [1] (HIF-2a, run 2), 0.221 µM; in assay [2] (run 1), < 10 µM. For the same compound, in assay [2] (run 2), the IC50 was > 99 µM.

On to `CN(C)c1ccc(Nc2nc(N)c3ccccc3n2)cc1`, for which the IC50 in assay [1] (HIF-2a PANC, mean of runs) was 17.9 µM; in assay [1] (HIF-2a PANC, run 1) it was 24.8 µM; in assay [1] (HIF-2a PANC, run 2), 11 µM; in assay [1] (HIF-2a, mean of runs), < 30 µM (inactive); in assay [1] (HIF-2a, run 1) it was < 30 µM; in assay [1] (HIF-2a, run 2) it was < 30 µM. The IC50 was 13.7 µM in assay [2] (run 1) and < 30 µM in assay [2] (run 2).
